# Measured values: patent publication US20220313698A1, “MODULATORS OF CYSTIC FIBROSIS TRANSMEMBRANE CONDUCTANCE REGULATOR” (Vertex Pharmaceuticals Incorporated, priority 2019, published 2022)
# pEC50: −log10 of the molar value.
# Target: CFTR-mediated chloride transport (Homo sapiens, UniProt P13569)
# Assay: Corrector Assay A - membrane potential dye assay (enteroid cells)
# Conditions: for Corrector Assay A % activity: % of chloride transport of triple combination control (1 μM (14S)-dispiro macrocycle + 3 μM tezacaftor + 300 nM ivacaftor); for pEC50: read-out: Corrector Assay A EC50, human intestinal enteroid cells, 18-24 h incubation, acute 10 μM forskolin + 300 nM ivacaftor
SMILES,Corrector Assay A % activity,pEC50
"CC(C)(C)CCOc1cccc(-c2ccc3c(n2)N2C[C@@H](CC[C@H](c4cc(C(C)(C)C)ccn4)Nc4cccc(n4)S(=O)(=O)NC3=O)CC2(C)C)n1 [Compound 303, (14S,17R)-17-(4-tert-butylpyridin-2-yl)-8-[6-(3,3-dimethylbutoxy)pyridin-2-yl]-12,12-dimethyl-2λ^6-thia-3,9,11,18,23-pentaazatetracyclo[17.3.1.111,14.05,10]tetracosa-1(22),5,7,9,19(23),20-hexaene-2,2,4-trione]",+++ (+++ is >60%),> 6.00
"CC(C)(C)CCOc1cccc(-c2ccc3c(n2)N2C[C@@H](CC[C@H](c4cccc(C(F)(F)F)n4)Nc4cccc(n4)S(=O)(=O)NC3=O)CC2(C)C)n1 [Compound 304, (14S,17R)-8-[6-(3,3-dimethylbutoxy)pyridin-2-yl]-12,12-dimethyl-17-[6-(trifluoromethyl)pyridin-2-yl]-2λ^6-thia-3,9,11,18,23-pentaazatetracyclo[17.3.1.111,14.05,10]tetracosa-1(22),5,7,9,19(23),20-hexaene-2,2,4-trione]",++ (++ is 30-60%),> 6.00
"CC(C)(C)CCOc1ccn(-c2ccc3c(n2)N2C[C@@H](CC[C@H](c4cc(C(C)(C)C)ccn4)Nc4cccc(n4)S(=O)(=O)NC3=O)CC2(C)C)n1 [Compound 305, (14S,17R)-17-(4-tert-butylpyridin-2-yl)-8-[3-(3,3-dimethylbutoxy)-1H-pyrazol-1-yl]-12,12-dimethyl-2λ^6-thia-3,9,11,18,23-pentaazatetracyclo[17.3.1.111,14.05,10]tetracosa-1(22),5,7,9,19(23),20-hexaene-2,2,4-trione]",+++ (+++ is >60%),> 6.00
"CC(C)(C)CCOc1ccn(-c2ccc3c(n2)N2C[C@@H](CC[C@H](c4cccc(C(F)(F)F)n4)Nc4cccc(n4)S(=O)(=O)NC3=O)CC2(C)C)n1 [Compound 306, (14S,17R)-8-[3-(3,3-dimethylbutoxy)-1H-pyrazol-1-yl]-12,12-dimethyl-17-[6-(trifluoromethyl)pyridin-2-yl]-2λ^6-thia-3,9,11,18,23-pentaazatetracyclo[17.3.1.111,14.05,10]tetracosa-1(22),5,7,9,19(23),20-hexaene-2,2,4-trione]",++ (++ is 30-60%),> 6.00
CC1(C)C[C@@H]2CC[C@H](c3ccccn3)Nc3cccc(n3)S(=O)(=O)NC(=O)c3ccc(-c4cccc(OCCC5CC5)n4)nc3N1C2 [Compound 311],+++ (+++ is >60%),> 6.00
CC(C)(C)COc1cccc(-c2ccc3c(n2)N2C[C@@H](CC[C@H](c4ccccn4)Nc4cccc(n4)S(=O)(=O)NC3=O)CC2(C)C)n1 [Compound 312],+++ (+++ is >60%),> 6.00
"CC1(C)C[C@@H]2CC[C@H](c3ccccn3)Nc3cccc(n3)S(=O)(=O)NC(=O)c3ccc(-c4cccc(OCC5CCC5)n4)nc3N1C2 [Compound 313, (14S,17R)-8-[6-(cyclobutylmethoxy)pyridin-2-yl]-12,12-dimethyl-17-(pyridin-2-yl)-2λ^6-thia-3,9,11,18,23-pentaazatetracyclo[17.3.1.111,14.05,10]tetracosa-1(22),5,7,9,19(23),20-hexaene-2,2,4-trione]",+++ (+++ is >60%),> 6.00
CC1(C)C[C@@H]2CC[C@H](c3ccccn3)Nc3cccc(n3)S(=O)(=O)NC(=O)c3ccc(-c4cccc(OCC5CC5)n4)nc3N1C2 [Compound 314],+++ (+++ is >60%),> 6.00
CC(C)COc1cccc(-c2ccc3c(n2)N2C[C@@H](CC[C@H](c4ccccn4)Nc4cccc(n4)S(=O)(=O)NC3=O)CC2(C)C)n1 [Compound 315],+++ (+++ is >60%),> 6.00
CCOc1cccc(-c2ccc3c(n2)N2C[C@@H](CC[C@H](c4ccccn4)Nc4cccc(n4)S(=O)(=O)NC3=O)CC2(C)C)n1 [Compound 316],+++ (+++ is >60%),> 6.00
CCOc1cccc(-c2ccc3c(n2)N2C[C@@H](CC[C@@H](c4ccccn4)Nc4cccc(n4)S(=O)(=O)NC3=O)CC2(C)C)n1 [Compound 317],++ (++ is 30-60%),> 6.00

# Second part, the compound after the results:
Corrector Assay A % activity,pEC50,SMILES
+ (+ is <30%),> 6.00,"CC1(C)C[C@@H]2CC[C@@H](c3ccccn3)Nc3cccc(n3)S(=O)(=O)NC(=O)c3ccc(Br)nc3N1C2 [Compound 247, (14S,17S)-8-bromo-12,12-dimethyl-17-(pyridin-2-yl)-2λ^6-thia-3,9,11,18,23-pentaazatetracyclo[17.3.1.111,14.05,10]tetracosa-1(22),5,7,9,19(23),20-hexaene-2,2,4-trione]"
+++ (+++ is >60%),> 6.00,CN1c2cccc(n2)S(=O)(=O)NC(=O)c2ccc(C(C)(C)C)nc2N2C[C@@H](CC[C@H]1c1ccccc1)CC2(C)C [Compound 262]
+++ (+++ is >60%),> 6.00,"CC(C)(C)c1ccnc([C@H]2CC[C@@H]3CN(c4nc(-c5cccc(OCCC6CC6)n5)ccc4C(=O)NS(=O)(=O)c4cccc(n4)N2)C(C)(C)C3)c1 [Compound 301, (14S,17R)-17-(4-tert-butylpyridin-2-yl)-8-[6-(2-cyclopropylethoxy)pyridin-2-yl]-12,12-dimethyl-2λ^6-thia-3,9,11,18,23-pentaazatetracyclo[17.3.1.111,14.05,10]tetracosa-1(22),5,7,9,19(23),20-hexaene-2,2,4-trione]"
+++ (+++ is >60%),> 6.00,"CC(C)(C)c1ccnc([C@H]2CC[C@@H]3CN(c4nc(-c5cccc(OCC6CCC6)n5)ccc4C(=O)NS(=O)(=O)c4cccc(n4)N2)C(C)(C)C3)c1 [Compound 302, (14S,17R)-17-(4-tert-butylpyridin-2-yl)-8-[6-(cyclobutylmethoxy)pyridin-2-yl]-12,12-dimethyl-2λ^6-thia-3,9,11,18,23-pentaazatetracyclo[17.3.1.111,14.05,10]tetracosa-1(22),5,7,9,19(23),20-hexaene-2,2,4-trione]"
+++ (+++ is >60%),> 6.00,"CC(C)(C)c1ccnc([C@H]2CC[C@@H]3CN(c4nc(-c5cccc(F)n5)ccc4C(=O)NS(=O)(=O)c4cccc(n4)N2)C(C)(C)C3)c1 [Compound 307, (14S,17R)-17-(4-tert-butylpyridin-2-yl)-8-(6-fluoropyridin-2-yl)-12,12-dimethyl-2λ^6-thia-3,9,11,18,23-pentaazatetracyclo[17.3.1.111,14.05,10]tetracosa-1(22),5,7,9,19(23),20-hexaene-2,2,4-trione]"
++ (++ is 30-60%),> 6.00,"CC1(C)C[C@@H]2CC[C@H](c3cccc(C(F)(F)F)n3)Nc3cccc(n3)S(=O)(=O)NC(=O)c3ccc(-c4cccc(F)n4)nc3N1C2 [Compound 308, (14S,17R)-8-(6-fluoropyridin-2-yl)-12,12-dimethyl-17-[6-(trifluoromethyl)pyridin-2-yl]-2λ^6-thia-3,9,11,18,23-pentaazatetracyclo[17.3.1.111,14.05,10]tetracosa-1(22),5,7,9,19(23),20-hexaene-2,2,4-trione]"
++ (++ is 30-60%),> 6.00,CC(C)(C)CCOc1cccc(-c2ccc3c(n2)N2C[C@@H](CC[C@H](c4ccccn4)Nc4cccc(n4)S(=O)(=O)NC3=O)CC2(C)C)n1 [Compound 310]
